Laboratory results taken from ChEMBL document CHEMBL6096714, “Advancements in Neurotechnology: Pioneering Brain Monitoring and Stimulation for Enhanced Treatment and Understanding” (ACS Med Chem Lett, 2025).
Active and inactive are the calls of the source. The rule behind the calls is not given here.

How the values were obtained:
Assay type in all cases: functional, cell-based
Cortical neurone [1] = assay: Neuroplasticity effect in female Wistar rat Cortical neuron assessed as increase in neurite length at 10 uM incubated for […]
Cortical neurone [2] = assay: Neuroplasticity effect in female Wistar rat Cortical neuron assessed as increase in neurite branching at 10 uM incubated for […]
Cortical neurone [3] = assay: Neuroplasticity effect in female Wistar rat Cortical neuron assessed as increase in neurite number at 10 uM incubated for […]

SMILES | Activity (Cortical neurone [1]) | Activity (Cortical neurone [2]) | Activity (Cortical neurone [3])
Fc1ccc(Oc2ccc3c4c([nH]c3c2)CCNCC4)cc1 | Active | Active | Active
c1ccc(COc2ccc3c4c([nH]c3c2)CCNCC4)cc1 | Active | Active | Active
CN1CCc2[nH]c3cc(Oc4ccccc4)ccc3c2CC1 | Active | Active | Active
CN1CCc2[nH]c3cc(OCc4ccccc4)ccc3c2CC1 | Active | inactive | Active
Cn1c2c(c3ccc(OCc4ccccc4)cc31)CCNCC2 | inactive | inactive | inactive
CN1CCc2[nH]c3cc(OCc4ccc(F)cc4)ccc3c2CC1 | Active | Active | Active
